Source: ChEMBL document CHEMBL1146010, “Synthesis and in vitro antimycobacterial activity of N1-nicotinoyl-3-(4'-hydroxy-3'-methyl phenyl)-5-[(sub)phenyl]-2-pyrazolines” (2006)
Converted amounts (≈) assume the structure as drawn.

Key:
[1] = test system: Mycobacterium tuberculosis; experiment: Antimycobacterial activity against Mycobacterium tuberculosis H37Rv by agar dilution method; type: functional
Vero = experiment: Cytotoxicity against Vero cell line upto 62.5 ug/ml after 72 hrs by MTT assay; type: functional, cell-based; details: Chlorocebus sabaeus

SMILES | MIC [1] [µM] | Activity (Vero)
Cc1cc(C2=NN(C(=O)c3ccncc3)C(c3ccco3)C2)ccc1O (stereo not given) | 0.58 (≈ 0.201 µg/mL) | –
COc1ccc(C2CC(c3ccc(O)c(C)c3)=NN2C(=O)c2ccncc2)c(OC)c1OC (stereo not given) | 3.93 (≈ 1.76 µg/mL) | –
Cc1cc(C2=NN(C(=O)c3ccncc3)C(c3ccccc3)C2)ccc1O (stereo not given) | 8.73 (≈ 3.12 µg/mL) | –
COc1ccc(C2CC(c3ccc(O)c(C)c3)=NN2C(=O)c2ccncc2)cc1 (stereo not given) | 16.1 (≈ 6.25 µg/mL) | –
Cc1cc(C2=NN(C(=O)c3ccncc3)C(c3ccccc3Cl)C2)ccc1O (stereo not given) | 0.26 (≈ 0.102 µg/mL) | Not toxic
Cc1cc(C2=NN(C(=O)c3ccncc3)C(c3ccc(N(C)C)cc3)C2)ccc1O (stereo not given) | 1.95 (≈ 0.781 µg/mL) | –
Cc1cc(C2=NN(C(=O)c3ccncc3)C(c3c(Cl)cccc3Cl)C2)ccc1O (stereo not given) | 0.47 (≈ 0.2 µg/mL) | Not toxic
COc1ccc(C2CC(c3ccc(O)c(C)c3)=NN2C(=O)c2ccncc2)cc1OC (stereo not given) | 1.87 (≈ 0.781 µg/mL) | –
Cc1cc(C2=NN(C(=O)c3ccncc3)C(c3cccc([N+](=O)[O-])c3)C2)ccc1O (stereo not given) | 15.5 (≈ 6.25 µg/mL) | –
Cc1cc(C2=NN(C(=O)c3ccncc3)C(c3ccc(F)cc3)C2)ccc1O (stereo not given) | 0.27 (≈ 0.101 µg/mL) | Not toxic
Cc1cc(C2=NN(C(=O)c3ccncc3)C(c3ccc(Cl)cc3)C2)ccc1O (stereo not given) | 1.99 (≈ 0.78 µg/mL) | –
NNC(=O)c1ccncc1 [ISONIAZID] | 0.73 (≈ 0.1 µg/mL) | –
